This is an account of results in patent US11098077B2, “Locked nucleic acid cyclic dinucleotide compounds and uses thereof” (CHINOOK THERAPEUTICS, INC., priority 2016, dated 2021).

One assay deals with T1, hSTING HAQ allele (Homo sapiens, UniProt Q86WV6, G230A/H232R/R293Q).
T1 construct: DNA encoding amino acids 140-379 (amino acid numbering corresponding to Swiss Prot Q86WV6); 6xHIS (N, cleaved yes); SUMO (N, cleaved yes); made in house; host or cells: Rosetta2 (DE3) E. coli
The assay can be described thus: Differential scanning fluorometry (DSF) binding to purified STING AA140-379, HAQ allele. The settings on record: ligand 1 mM, 1 mg/ml STING AA140-379. As for the experimental part:
(§1) Cells were grown in lysogeny broth at 37° C. until a […] absorbance of 0.6 was reached. […] Cell pellets were re-suspended on ice in a buffer containing 50 mM Tris hydrochloride (Tris-HCl) pH 7.5, 500 mM sodium chloride (NaCl), 20 mM imidazole, 10% glycerol, 1 mM tris(2-carboxyethyl)phosphine hydrochloride (TCEP) and protease inhibitor tablet (Pierce) (Buffer A). Cells were lysed using an S-450D sonifier (Emmerson industrial) on ice. […] Protein was aliquoted, flash frozen in liquid nitrogen and stored at −80° C. until use.
(§2) The protein is heated in the presence of a dye that binds to and fluoresces in hydrophobic environments. The protein is thermally denatured by heating resulting in increased dye binding to the unfolded protein and fluorescence. The temperature midpoint (Tm) of a proteins denaturation is established by calculating the half maximal value of the denaturation curve. The temperature midpoint of the protein in the presence of a ligand is directly related to the affinity of the ligand for the protein and therefore its ability to stabilize the protein at higher temperatures.
(§3) Each of wild type hSTING, HAQ allele hSTING and REF allele hSTING were used with each of the reference compounds and compounds of the invention as listed in Table 4. Samples were placed in hard shell PCR plate (Bio-Rad). The fluorescence as a function of temperature was recorded in a CFX 96 real time PCR machine (Bio-Rad) reading on the HEX channel, excitation 450-490, emission 560-580 nm. The temperature gradient was from 15-80° C. ramping 0.5° C. per 15 seconds and recording every 0.5° C. After subtraction of the background signal from a sample lacking protein and ligand. The midpoint temperature (Tm) was calculated by fitting the curves of the fluorescence as a function of temperature to a Boltzmann sigmoidal function (Graph Pad Prism).

The target in assay [1] is T2, hSTING HAQ allele in THP1-Dual cells (Homo sapiens, UniProt Q86WV6, G230A/H232R/R293Q/R71H).
T2 construct: a human monocyte cell line containing the hSTING HAQ allele; host or cells: THP1-Dual cells
The assay can be described thus: THP1-Dual IRF-3 inducible secreted luciferase reporter assay (type I interferon activation), without digitonin. It is filed as cell-based. As for the experimental part:
After 30 minutes, cells were washed and fresh RPMI media containing 10% FBS was added, and cells were incubated at 37° C. with 5% CO2 Cell culture supernatants from each sample were collected after overnight incubation, and 10 μL of the cell culture supernatants was added to 50 μL QUANTI-Luc reagent (Invivogen). Type I interferon activation was determined by measuring secreted luciferase levels on a SpectraMax M3 spectrophotometer (Molecular Devices).
(Reporter assays use an easily measured gene product as a stand-in for the process of interest.)

The target of another assay is T3, hSTING REF allele (Homo sapiens, UniProt Q86WV6).
T3 construct: DNA encoding amino acids 140-379 (amino acid numbering corresponding to Swiss Prot Q86WV6); 6xHIS (N, cleaved yes); SUMO (N, cleaved yes); made in house; host or cells: Rosetta2 (DE3) E. coli
The assay can be described thus: Differential scanning fluorometry (DSF) binding to purified STING AA140-379, REF allele. Conditions: for hSTING Tm Shift REF: DSF, ligand 1 mM, 1 mg/ml STING AA140-379; for Tm shift compared with 2′3′-RR-(A)(A) and 2′3′-(G)(A): for the REF allele. As for the experimental part:
as §1, §2, §3

In another assay the target is T4, hSTING WT (Homo sapiens, UniProt Q86WV6, H232R).
T4 construct: DNA encoding amino acids 140-379 (amino acid numbering corresponding to Swiss Prot Q86WV6); 6xHIS (N, cleaved yes); SUMO (N, cleaved yes); made in house; host or cells: Rosetta2 (DE3) E. coli
The assay can be described thus: Differential scanning fluorometry (DSF) binding to purified STING AA140-379, wild type. The settings on record: for hSTING Tm Shift WT: DSF, ligand 1 mM, 1 mg/ml STING AA140-379. As for the experimental part:
as §1, §2, §3
On the technique in general: DSF heats the sample and reads unfolding from a dye or from intrinsic fluorescence.

Where [2] appears, read: for all three alleles (WT, HAQ, REF).

T2 sequence (Q86WV6 whole entry R71H/G230A/H232R/R293Q): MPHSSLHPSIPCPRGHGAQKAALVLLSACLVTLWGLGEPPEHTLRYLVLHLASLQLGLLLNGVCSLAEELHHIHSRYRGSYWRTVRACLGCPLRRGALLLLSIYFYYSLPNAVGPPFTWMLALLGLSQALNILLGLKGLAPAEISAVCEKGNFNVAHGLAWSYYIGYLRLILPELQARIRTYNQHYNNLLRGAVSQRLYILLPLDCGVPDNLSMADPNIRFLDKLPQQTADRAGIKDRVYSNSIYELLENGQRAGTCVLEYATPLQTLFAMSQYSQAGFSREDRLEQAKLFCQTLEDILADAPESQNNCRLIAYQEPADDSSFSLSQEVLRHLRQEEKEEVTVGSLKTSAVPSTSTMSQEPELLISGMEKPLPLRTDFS
T3 sequence (Q86WV6 140-379): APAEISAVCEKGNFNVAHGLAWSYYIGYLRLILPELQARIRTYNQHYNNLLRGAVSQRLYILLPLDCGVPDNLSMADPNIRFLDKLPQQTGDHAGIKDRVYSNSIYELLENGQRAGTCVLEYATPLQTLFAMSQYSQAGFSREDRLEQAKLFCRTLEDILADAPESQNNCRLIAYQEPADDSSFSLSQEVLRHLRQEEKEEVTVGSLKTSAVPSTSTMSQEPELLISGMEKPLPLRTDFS
T1 sequence (Q86WV6 140-379 G230A/H232R/R293Q limits assumed): as the sequence (Q86WV6 140-379) above, with G91A, H93R, R154Q counted along it
T4 sequence (Q86WV6 140-379 H232R limits assumed): as the sequence (Q86WV6 140-379) above, with H93R counted along it

On to `Nc1nc2c(ncn2[C@@H]2O[C@@]34CO[C@@H]2[C@@H]3O[P@@](=O)(S)OC[C@H]2O[C@@H](n3cnc5c(N)ncnc53)[C@H](O)[C@@H]2O[P@](=O)(S)OC4)c(=O)[nH]1` [Compound 33b, 2-amino-9-((2R,3R,3 aS,5S,7aR,9R,10R,10aS,12R,14aR)-9-(6-amino-9H-purin-9-yl)-10-hydroxy-5,12-dimercapto-5,12-dioxidohexahydro-2H,7H,14H-3,14a-(epoxymethano)difuro[3,2-d:3′,2′-j][1,3,7,9]tetraoxa[2,8]diphosphacyclododecin-2-yl)-1,9-dihydro-6H-purin-6-one], for which the “hSTING Tm Shift HAQ” value on hSTING HAQ allele is 19.3 °C. Also, in assay [1], the EC50 (as a rule, the midpoint of the concentration-response curve) came to 38 µM. In addition, on hSTING REF allele, the “hSTING Tm Shift REF” value is 9.3 °C; the “Tm shift compared with 2′3′-RR-(A)(A) and 2′3′-(G)(A)” value was “greater Tm shift than both 2′3′-RR-(A)(A) and 2′3′-(G)(A)”. In addition, the “hSTING Tm Shift WT” value on hSTING WT was 13.2 °C. Further, the “Tm shift compared with reference compound 2′3′-RR-(A)(A)” value at hSTING WT (setting [2]) is “comparable to or greater than that of the reference compound 2′3′-RR-(A)(A)”.
Turning to `Nc1ncnc2c1ncn2[C@@H]1O[C@@H]2CO[P@](=O)(S)O[C@H]3[C@H]4OC[C@]3(CO[P@](=O)(S)O[C@@H]1[C@@H]2O)O[C@H]4n1cnc2c(N)ncnc21` [Compound 10d, dithio-(Sp,Sp)-cyclic-[A(2′,5′)p-2′O,4′-C-LNA-A(3′,5′)p]], the “hSTING Tm Shift HAQ” value at hSTING HAQ allele came out at 5.0 °C. Also, the EC50 in assay [1] was more than 150 µM. Also, the “hSTING Tm Shift REF” value at hSTING REF allele worked out at 3.2 °C. For the same compound, the “hSTING Tm Shift WT” value at hSTING WT is 4.1 °C.
Turning to `Nc1nc2c(ncn2[C@@H]2O[C@@H]3CO[P@@](=O)(S)O[C@H]4[C@H]5OC[C@]4(CO[P@@](=O)(S)O[C@H]3[C@H]2O)O[C@H]5n2cnc3c(N)ncnc32)c(=O)[nH]1` [Compound 45a, 2-amino-9-((2R,3R,3aS,5R,7aR,9R,10R,10aS,12R,14aR)-2-(6-amino-9H-purin-9-yl)-10-hydroxy-5,12-dimercapto-5,12-dioxidohexahydro-2H,7H,14H-3,14a-(epoxymethano)difuro[3,2-d:3′,2′-j][1,3,7,9]tetraoxa[2,8]diphosphacyclododecin-9-yl)-1,9-dihydro-6H-purin-6-one], the “hSTING Tm Shift HAQ” value on hSTING HAQ allele came to 34.0 °C. In assay [1], the midpoint of the response, the EC50, lay at 5.8 µM. Also, on hSTING REF allele, the “hSTING Tm Shift REF” value was 13.1 °C; the “Tm shift compared with 2′3′-RR-(A)(A) and 2′3′-(G)(A)” value is “greater Tm shift than both 2′3′-RR-(A)(A) and 2′3′-(G)(A)”. In addition, the “hSTING Tm Shift WT” value at hSTING WT came out at 20.3 °C. For the same compound, at hSTING WT (setting [2]), the “Tm shift compared with natural ligand 2′3′-(G)(A)” value is listed as “greater Tm shift than the natural ligand 2′3′-(G)(A)” and the “Tm shift compared with reference compound 2′3′-RR-(A)(A)” value is given as “comparable to or greater than that of the reference compound 2′3′-RR-(A)(A)”.
For `Nc1ncnc2c1ncn2[C@@H]1O[C@@]23CO[C@@H]1[C@@H]2O[P@@](=O)(S)OC[C@@]12CO[C@@H]([C@H](n4cnc5c(N)ncnc54)O1)[C@@H]2O[P@](=O)(S)OC3` [Compound 5b], the “hSTING Tm Shift HAQ” value on hSTING HAQ allele turned out to be 18.3 °C. The compound also returned an EC50 in assay [1] of 19.3 µM. Also, on hSTING REF allele, the “hSTING Tm Shift REF” value was found to be 8.7 °C; the “Tm shift compared with 2′3′-RR-(A)(A) and 2′3′-(G)(A)” value is “greater Tm shift than both 2′3′-RR-(A)(A) and 2′3′-(G)(A)”. Besides, at hSTING WT, the “hSTING Tm Shift WT” value came to 11.3 °C. At hSTING WT (setting [2]), the “Tm shift compared with reference compound 2′3′-RR-(A)(A)” value was “comparable to or greater than that of the reference compound 2′3′-RR-(A)(A)”.
For the compound `Nc1ncnc2c1ncn2[C@@H]1O[C@@H]2CO[P@](=O)(S)O[C@H]3[C@H]4OC[C@]3(CO[P@@](=O)(S)O[C@@H]1[C@@H]2O)O[C@H]4n1cnc2c(N)ncnc21` [Compound 10b, dithio-(Rp,Sp)-cyclic-[A(2′,5′)p-2′O,4′C-LNA-A(3′,5′)p]], the “hSTING Tm Shift HAQ” value on hSTING HAQ allele came to 13.9 °C. For the same compound, a half-maximal response in assay [1] (EC50) required 110 µM. Also, the “hSTING Tm Shift REF” value at hSTING REF allele is 7.4 °C. Moreover, the “hSTING Tm Shift WT” value at hSTING WT was found to be 8.7 °C.
In the case of `Nc1ncnc2c1ncn2[C@@H]1O[C@@H]2CO[P@](=O)(S)O[C@H]3[C@H]4OC[C@]3(CO[P@](=O)(S)O[C@@H]1[C@H]2F)O[C@H]4n1cnc2c(N)ncnc21` [Compound 37d, dithio-(SP,SP)-cyclic-[3′βF-A(2′,5′)p-2′O,4′C-LNA-A(3′,5′)p]], the “hSTING Tm Shift HAQ” value on hSTING HAQ allele stood at 2.4 °C. The EC50 in assay [1] was more than 150 µM. In addition, the “hSTING Tm Shift REF” value at hSTING REF allele was −0.3 °C. Further, the “hSTING Tm Shift WT” value at hSTING WT is −0.3 °C.
As to `O=C(Nc1ncnc2c1ncn2[C@@H]1O[C@@]23CO[C@@H]1[C@@H]2O[P@](=O)(S)OC[C@@]12CO[C@@H]([C@H](n4cnc5c(NC(=O)c6ccccc6)ncnc54)O1)[C@@H]2O[P@](=O)(S)OC3)c1ccccc1` [Compound 4a], the “hSTING Tm Shift HAQ” value at hSTING HAQ allele is 5.6 °C. The compound further yielded an EC50 in assay [1] of 341 µM. The “hSTING Tm Shift REF” value on hSTING REF allele was 4.4 °C. Also, the “hSTING Tm Shift WT” value on hSTING WT was 4.3 °C.
On to `Nc1ncnc2c1ncn2[C@@H]1O[C@@H]2CO[P@@](=O)(S)O[C@H]3[C@H]4OC[C@]3(CO[P@](=O)(S)O[C@@H]1[C@H]2F)O[C@H]4n1cnc2c(N)ncnc21` [Compound 37c, dithio-(Sp,Rp)-cyclic-[3′βF-A(2′,5′)p-2′O,4′C-LNA-A(3′,5′)p]], for which, on hSTING HAQ allele, the “hSTING Tm Shift HAQ” value came out at 5.7 °C. The compound further returned an EC50 in assay [1] of more than 150 µM. Also, the “hSTING Tm Shift REF” value on hSTING REF allele was found to be 0.8 °C. On hSTING WT, the “hSTING Tm Shift WT” value is 1.2 °C.
On to `Nc1ncnc2c1ncn2[C@@H]1O[C@@]23CO[C@@H]1[C@@H]2O[P@@](=O)(S)OC[C@@H]1C[C@@H](O[P@](=O)(S)OC3)[C@H](n2cnc3c(N)ncnc32)O1` [Compound 21b, dithio-(Rp,Sp)-cyclic-[3′H-A(2′,5′)p-2′O,4′C-LNA-A(3′,5′)p]], for which the “hSTING Tm Shift HAQ” value at hSTING HAQ allele was 10.0 °C. The compound further returned an EC50 in assay [1] of 77.3 µM. In addition, the “hSTING Tm Shift REF” value on hSTING REF allele came out at 4.2 °C. The “hSTING Tm Shift WT” value on hSTING WT was 5.0 °C.
For the compound `Nc1nc2c(ncn2[C@@H]2O[C@@H]3CO[P@](=O)(S)O[C@H]4[C@H]5OC[C@]4(CO[P@@](=O)(S)O[C@H]3[C@H]2O)O[C@H]5n2cnc3c(N)ncnc32)c(=O)[nH]1` [Compound 45b, 2-amino-9-((2R,3R,3aS,5S,7aR,9R,10R,10aS,12R,14aR)-2-(6-amino-9H-purin-9-yl)-10-hydroxy-5,12-dimercapto-5,12-dioxidohexahydro-2H,7H,14H-3,14a-(epoxymethano)difuro[3,2-d:3′,2′-j][1,3,7,9]tetraoxa[2,8]diphosphacyclododecin-9-yl)-1,9-dihydro-6H-purin-6-one], the “hSTING Tm Shift HAQ” value at hSTING HAQ allele was 14.7 °C. This compound also gave an EC50 in assay [1] of 60 µM. Also, on hSTING REF allele, the “hSTING Tm Shift REF” value came to 7.4 °C. Besides, the “hSTING Tm Shift WT” value at hSTING WT is 9.4 °C.
